A word on the IC50: it is the concentration needed to halve the response being measured. Broadly, the Kd is the constant that tells how readily two partners part at equilibrium. Read a high Kd as lower affinity.

A value given as a limit tells only on which side of the number the result lay.

The target of one experiment is Cbl-b (Homo sapiens, UniProt Q13191). Nature of the experiment: Cbl-b activity assay (Cbl-b inhibition assay), TR-FRET of Cbl-b interaction with UbcH5B-Ub. It is filed as biochemical. The settings on record: assay buffer with 100 mM NaCl, 60 nM Src kinase; read-out: Cbl-b activity IC50. The essentials:
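TR-FRET readout of Cbl-b binding to Bodipy-fluorescein N-terminally labeled Ub conjugated to UbcH5B C85K, measured with compound present. After compound incubation, 60 nM Src kinase with 1 mM ATP and 5 mM MgCl2 (final) was added for 1.5 h, then a further 1 h incubation; asterisked values used 50 mM NaCl buffer and 30 nM Src.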
(In general: TR-FRET usually uses a lanthanide donor and a delayed reading to cut background.)

A further experiment addresses Cbl-b (residues 36-427) (Homo sapiens, UniProt Q13191). Nature of the experiment: Cbl-b binding assay (SPR, Biacore T200). The settings on record: 20° C., 1:1 binding model. The method, boiled down:
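Affinities derived from global 1:1 steady-state or kinetic fits of double-referenced, solvent-corrected SPR data, 20 °C, NeutrAvidin-capture chip. Compound series (top 100 or 50 μM, 8–10 points) injected 50 s, 90–180 s dissociation. Asterisked values used 50 mM instead of 100 mM NaCl and 30 nM Src kinase.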
Background: Surface plasmon resonance follows binding to a sensor surface in real time, without labels.

Experiment [1] concerns human T-cells with allogenic immature dendritic cells. The experiment is described as follows: Allogenic mixed lymphocyte reaction (MLR), T-cell proliferation. It is filed as cell-based. The settings on record: 120 h, 5 days, baseline T-cells without Cbl-b inhibitor, read-out: Proliferation, fold change over baseline. Here is the method:
Cbl-b inhibitor effects on primary human T-cells were also evaluated in the context of an allogenic mixed lymphocyte reaction (MLR). Allogenic immature dendritic cells were generated under the following conditions. Peripheral blood mononuclear cells (PBMC) were obtained either: 1) by using Ficoll-Paque™ (GE Healthcare) for separation of peripheral blood hematopoietic cells from huffy coats of healthy human donors; or 2) directly from LeukoPak donations. […] Monocytes were cultured with 30 ng/mL of recombinant human GM-CSF and 20 ng/mL of recombinant human IL-4 for seven days to generate immature dendritic cells. Monocytes and T-cells were either isolated fresh from peripheral blood or thawed from frozen stocks. Human T-cells were isolated, labeled with CFSE and incubated with inhibitors as described above. […] Proliferation of the T-cells was evaluated by flow cytometry.
Readouts for the allogenic mixed lymphocyte reaction were reported as fold change over baseline. Baseline for this study was the measurement obtained from total human T-cells stimulated with allogenic immature dendritic cells, wherein the T-cells were not incubated with a Cbl-b inhibitor (Table 5). Increases in proliferation greater than 2-fold over baseline were considered a positive response (Table 5).

The test system of a further experiment is anergic human T-cells. The experiment is described as follows: Anergic T-cell activation assessed by IFNγ secretion (ionomycin-induced anergy). It is filed as cell-based. The settings on record: anergic T-cells re-challenged with anti-CD3 and anti-CD28 for 24 hours, read-out: IFNγ Fold change from baseline. An excerpt:
Peripheral blood mononuclear cells (PBMC) were obtained either: 1) by using Ficoll-Paque™ (GE Healthcare) for separation of peripheral blood hematopoietic cells from buffy coats of healthy human donors; or 2) directly from LeukoPak donations. Total human primary T-cells were isolated from the PBMCs utilizing negative selection with commercial kits following the manufacturer's protocol (Miltenyi Catalog #130-096-535 (i.e., cocktail of antibodies against surface markers CD14, CD15, CD16, CD19, CD34, CD36, CD56, CD123 and CD235a were incubated with the PBMCs before passing the samples by magnetic beads for removal of cells expressing those surface markers) or StemCells Catalog #17951) to yield >95% CD3+ cells assessed by flow cytometry. The cells were activated with immobilized anti-CD3 antibody (OKT3) and soluble anti-CD28 antibody (28.2) for two days at which time they are washed and allowed to rest for three days in the absence of stimulation. They were then treated with ionomycin (Sigma) for 18-24 hours to induce anergy. Following two washes to remove the ionomycin from the samples, Cbl-b inhibitor compounds were added to the cells at the indicated concentrations (e.g. 10, 1.11 and 0.37 μM) and incubated for 1 hour. The cells were then re-challenged with anti-CD3 antibody and anti-CD28 antibody for 24 hours at which point cell free supernatants were collected and assessed for cytokines (e.g., IFNγ) by ELISA (R&D Systems or Peprotech) or Luminex multiplex kits (Procarta Life Technologies) following manufacturer's protocols.
Cbl-b inhibitors were tested to determine their ability to induce or enhance secretion of cytokines from anergic T-cells (e.g. IFNγ), which is indicative of decreased T-cell tolerance.
Readouts were reported as fold change over baseline. Baseline for this study was the measurement obtained from anergic human T-cells stimulated with immobilized anti-CD3 and soluble anti-CD28, wherein the T-cells were not incubated with a Cbl-b inhibitor (Table 7). For IFNγ changes greater than 2.5-fold over baseline were considered a positive response (Table 7). Compounds were ranked into bins according to their readout as follows for IFNγ: A indicates ≤2.50, B indicates 2.51-4.00 and C indicates >4.01.

Another experiment has as its system T-cell. The experiment is described as follows: IL-2 secretion from T-cells stimulated with anti-CD3 antibody alone (Biological Example 2). The class given is cell-based. The settings on record: primary human total T-cells, read-out: IL-2 secretion, Anti-CD3 stimulation, fold change over baseline; for fold induction at 1 µM: 1 μM compound; for fold induction at 8 µM: 8 μM compound.

Chain of Cbl-b (residues 36-427) (Q13191 36-427): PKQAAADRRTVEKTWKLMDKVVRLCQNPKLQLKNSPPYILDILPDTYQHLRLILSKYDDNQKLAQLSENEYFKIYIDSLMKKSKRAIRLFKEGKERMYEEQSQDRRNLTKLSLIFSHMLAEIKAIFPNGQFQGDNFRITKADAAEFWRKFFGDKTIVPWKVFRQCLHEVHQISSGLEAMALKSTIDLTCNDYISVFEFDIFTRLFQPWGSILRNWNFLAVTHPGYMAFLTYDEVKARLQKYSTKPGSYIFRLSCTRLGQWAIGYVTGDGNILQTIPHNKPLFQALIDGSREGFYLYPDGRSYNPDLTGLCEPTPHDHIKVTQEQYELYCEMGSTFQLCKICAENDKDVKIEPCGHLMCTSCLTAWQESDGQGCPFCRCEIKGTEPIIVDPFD
Chain of Cbl-b (Q13191 36-427): as above

With `Cc1n[nH]c(C)c1-c1cc2c(c(C(F)(F)F)c1)CN(c1cccc(C3(Cc4nncn4C)COC3)c1)C2=O` [Compound 385, 6-(3,5-dimethyl-1H-pyrazol-4-yl)-2-(3-{3-[(4-methyl-4H-1,2,4-triazol-3-yl)methyl]oxetan-3-yl}phenyl)-4-(trifluoromethyl)-2,3-dihydro-1H-isoindol-1-one], the IC50 at Cbl-b was < 100 nM. Further, the Kd at Cbl-b (residues 36-427) is < 100 nM. In experiment [1], the fold induction at 3 µM was < 2 and the fold induction at 10 µM was < 2. In the experiment with anergic human T-cells, the fold induction at 0.37 µM was ≤ 2.5, the fold induction at 1.11 µM was ≤ 2.5 and the fold induction at 10 µM is > 4.01. For the same molecule, in the experiment with T-cell, the fold induction at 1 µM was 0.101 to 0.15 and the fold induction at 8 µM is > 0.201.

`C[C@H](Cc1nncn1C)c1cccc(N2Cc3c(cc(CN4CC(O)C4)cc3C(F)(F)F)C2=O)c1` [Compound 393, (R)-6-((3-hydroxyazetidin-1-yl)methyl)-2-(3-(1-(4-methyl-4H-1,2,4-triazol-3-yl)propan-2-yl)phenyl)-4-(trifluoromethyl)isoindolin-1-one]: the IC50 on Cbl-b was < 100 nM. For the same molecule, the equilibrium dissociation constant (Kd) on Cbl-b (residues 36-427) was < 100 nM. Also, in experiment [1], the fold induction at 3 µM is < 2 and the fold induction at 10 µM was 2.01 to 3. For the same molecule, in the experiment with anergic human T-cells, the fold induction at 0.37 µM was ≤ 2.5, the fold induction at 1.11 µM was in the range of 2.51 to 4 and the fold induction at 10 µM was > 4.01. In the experiment on T-cell, the fold induction at 1 µM was > 0.201 and the fold induction at 8 µM was > 0.201.

As for `C[C@H](Cc1nncn1C)c1cccc(N2Cc3c(cc(CN4CC(C)(O)C4)cc3C(F)(F)F)C2=O)c1` [Compound 397], the IC50 at Cbl-b is < 100 nM. Moreover, the Kd on Cbl-b (residues 36-427) was < 100 nM. Also, in experiment [1], the fold induction at 3 µM was < 2 and the fold induction at 10 µM is 2.01 to 3. In addition, in the experiment on anergic human T-cells, the fold induction at 0.37 µM was ≤ 2.5, the fold induction at 1.11 µM was > 4.01 and the fold induction at 10 µM is > 4.01. In addition, in the experiment on T-cell, the fold induction at 1 µM is 0.151 to 0.2 and the fold induction at 8 µM was > 0.201.

As for `C[C@H](Cc1nncn1C)c1cccc(N2Cc3c(cc(CN4CC[C@](C)(O)C4)cc3C(F)(F)F)C2=O)c1` [Compound 398, 6-(((S)-3-hydroxy-3-methylpyrrolidin-1-yl)methyl)-2-(3-((R)-1-(4-methyl-4H-1,2,4-triazol-3-yl)propan-2-yl)phenyl)-4-(trifluoromethyl)isoindolin-1-one], at Cbl-b, the IC50 is < 100 nM. On Cbl-b (residues 36-427), the Kd was < 100 nM. In addition, in experiment [1], the fold induction at 3 µM was 2.01 to 3 and the fold induction at 10 µM lay in the range of 2.01 to 3. In the experiment with anergic human T-cells, the fold induction at 0.37 µM was ≤ 2.5, the fold induction at 1.11 µM is > 4.01 and the fold induction at 10 µM was > 4.01. For the same molecule, in the experiment with T-cell, the fold induction at 1 µM fell in the range of 0.101 to 0.15 and the fold induction at 8 µM is > 0.201.

With `C[C@H](Cc1nncn1C)c1cccc(N2Cc3c(cc(CN4CC[C@H](F)C4)cc3C(F)(F)F)C2=O)c1` [Compound 399, 6-(((S)-3-fluoropyrrolidin-1-yl)methyl)-2-(3-((R)-1-(4-methyl-4H-1,2,4-triazol-3-yl)propan-2-yl)phenyl)-4-(trifluoromethyl)isoindolin-1-one], the IC50 on Cbl-b was < 100 nM. Besides, at Cbl-b (residues 36-427), the Kd was < 100 nM. In experiment [1], the fold induction at 3 µM lay within 2.01 to 3 and the fold induction at 10 µM was > 3.01. In the experiment on anergic human T-cells, the fold induction at 0.37 µM was > 4.01, the fold induction at 1.11 µM was > 4.01 and the fold induction at 10 µM is > 4.01. For the same molecule, in the experiment with T-cell, the fold induction at 1 µM is 0.151 to 0.2 and the fold induction at 8 µM is > 0.201.

With `Cn1cnnc1C(F)(F)[C@](C)(F)c1cccc(N2Cc3c(cc(C(=O)N4CC[C@H](O)C4)cc3C(F)(F)F)C2=O)c1` [Compound 438, 6-((S)-3-hydroxypyrrolidine-1-carbonyl)-2-(3-((R)-1,1,2-trifluoro-1-(4-methyl-4H-1,2,4-triazol-3-yl)propan-2-yl)phenyl)-4-(trifluoromethyl)isoindolin-1-one], the IC50 on Cbl-b was < 100 nM. The same molecule yielded a Kd on Cbl-b (residues 36-427) of 100 to 300 nM. Besides, in experiment [1], the fold induction at 3 µM was < 2 and the fold induction at 10 µM is < 2. In the experiment with anergic human T-cells, the fold induction at 0.37 µM was ≤ 2.5, the fold induction at 1.11 µM was ≤ 2.5 and the fold induction at 10 µM was > 4.01. In addition, in the experiment on T-cell, the fold induction at 1 µM was 0.101 to 0.15 and the fold induction at 8 µM is > 0.201.

On to `Cn1cnnc1C(F)(F)[C@](C)(F)c1cccc(N2Cc3c(cc(CN4CC[C@@H](F)C4)cc3C(F)(F)F)C2=O)c1` [Compound 450], for which the IC50 on Cbl-b is < 100 nM. Moreover, the Kd on Cbl-b (residues 36-427) is < 100 nM. Also, in experiment [1], the fold induction at 3 µM was < 2 and the fold induction at 10 µM was 2.01 to 3. For the same molecule, in the experiment with anergic human T-cells, the fold induction at 0.37 µM is 2.51 to 4, the fold induction at 1.11 µM fell in the range of 2.51 to 4 and the fold induction at 10 µM was > 4.01. In the experiment on T-cell, the fold induction at 1 µM was > 0.201 and the fold induction at 8 µM is > 0.201.

With `COC1CN(Cc2cc3c(c(C(F)(F)F)c2)CN(c2cccc([C@@](C)(F)C(F)(F)c4nncn4C)c2)C3=O)C1` [Compound 452, (R)-6-((3-methoxyazetidin-1-yl)methyl)-2-(3-(1,1,2-trifluoro-1-(4-methyl-4H-1,2,4-triazol-3-yl)propan-2-yl)phenyl)-4-(trifluoromethyl)isoindolin-1-one], on Cbl-b, the IC50 is < 100 nM. For the same molecule, the dissociation constant (Kd) at Cbl-b (residues 36-427) is < 100 nM. Besides, in experiment [1], the fold induction at 3 µM was < 2 and the fold induction at 10 µM is < 2. For the same molecule, in the experiment with anergic human T-cells, the fold induction at 0.37 µM was ≤ 2.5, the fold induction at 1.11 µM was 2.51 to 4 and the fold induction at 10 µM is > 4.01. In addition, in the experiment on T-cell, the fold induction at 1 µM lay within 0.151 to 0.2 and the fold induction at 8 µM is > 0.201.

Consider `C[C@H](Cc1nncn1C)c1cccc(NC(=O)c2cc3cc(N4CCNCC4)ccc3cn2)c1` [Compound 472, N-{3-[(2R)-1-(4-methyl-4H-1,2,4-triazol-3-yl)propan-2-yl]phenyl}-6-(piperazin-1-yl)isoquinoline-3-carboxamide], for which the IC50 at Cbl-b is < 100 nM. Also, the Kd at Cbl-b (residues 36-427) was < 100 nM. In experiment [1], the fold induction at 3 µM is < 2 and the fold induction at 10 µM was < 2. For the same molecule, in the experiment with anergic human T-cells, the fold induction at 0.37 µM is ≤ 2.5, the fold induction at 1.11 µM is ≤ 2.5 and the fold induction at 10 µM is 2.51 to 4. Further, in the experiment with T-cell, the fold induction at 1 µM fell in the range of 0.101 to 0.15 and the fold induction at 8 µM fell in the range of 0.101 to 0.15.

These data come from US20220324835A1 (Nurix Therapeutics, Inc., priority 2018, published 2022).
